Like-named read-outs stand apart in the source and are kept apart here.
Molecular target: T1, VAV1 (Homo sapiens, UniProt P15498+Q96SW2)
T1 construct: A heterozygous VAV1 C-terminal HiBiT knock-in pool was generated at Monte Rosa Therapeutics from a clonal Jurkat cell; endogenous in cells; host or cells: Jurkat clone stably expressing LgBiT, homozygous GSPT1-G575N; heterozygous VAV1-HiBiT knock-in pool
Assay: VAV1 degradation activity, VAV1-HiBiT knock-in Jurkat luminescence assay (Example A, Table 1)
Assay type: cell-based
Conditions: VAV1-HiBiT knock-in Jurkat cells, luminescence read at 6 and 24 hours; for Dmax: Jurkat
Summary of the method: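 Jurkat cells carrying VAV1-HiBiT knock-in, plated in RPMI/10% FBS with Endurazine live-cell substrate and pre-incubated ~16 h at 37° C. Compound dosed from 10 μM stock; luminescence read 6 and 24 h later. Response normalised to plate negative/positive controls, EC50 from 3-parameter logistic fit (hillslope 1).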

[1] = read-out: VAV1 DC50 (nM), class

| Compound | Dmax (read-out: VAV1 Dmax %) | Dmax (read-out: VAV1 Dmax %, class) | DC50 (read-out: VAV1 DC50) | DC50 [1] |
| --- | --- | --- | --- | --- |
| O=C1CCC(c2cccc(-c3ccc(N4CCN5CCCC5C4=O)cc3)c2Cl)C(=O)N1 (stereo not shown) [Compound 308] | 93.8% | > 90% | 22.5 nM | ≤ 100 nM |
| O=C1CCC(c2cccc(-c3ccc(N4CCn5ccnc5C4=O)cc3)c2Cl)C(=O)N1 (stereo not shown) [Compound 309] | 89.6% | 60 to 90% | 39.4 nM | ≤ 100 nM |
| O=C1CCC(c2cccc(-c3ccc(N4CCC5(COC5)CC4=O)cc3)c2Cl)C(=O)N1 (stereo not shown) [Compound 310] | 90.5% | > 90% | 23 nM | ≤ 100 nM |
| CC1(C)CN(c2ccc(-c3cccc(C4CCC(=O)NC4=O)c3Cl)cc2)C(=O)CO1 (stereo not shown) [Compound 311] | 92.7% | > 90% | 21.9 nM | ≤ 100 nM |
| O=C1CCC(c2cccc(-c3ccc(N4CCC5CC5C4=O)cc3)c2Cl)C(=O)N1 (stereo not shown) [Compound 312] | 96.1% | > 90% | 7.99 nM | ≤ 100 nM |
| Cn1ncc2c1CCN(c1ccc(-c3cccc(C4CCC(=O)NC4=O)c3Cl)cc1)C2=O (stereo not shown) [Compound 313] | 95.3% | > 90% | 7.02 nM | ≤ 100 nM |
| CC1CCC(=O)N(c2ccc(-c3cccc(C4CCC(=O)NC4=O)c3Cl)cc2)C1 (stereo not shown) [Compound 314] | 96.1% | > 90% | 9.68 nM | ≤ 100 nM |
| O=C1CCC(c2cccc(-c3ccc(N4CCn5cncc5C4=O)cc3)c2Cl)C(=O)N1 (stereo not shown) [Compound 315] | 89.8% | 60 to 90% | 22 nM | ≤ 100 nM |
| Cn1ncc2c1CCC(=O)N2c1ccc(-c2cccc(C3CCC(=O)NC3=O)c2Cl)cc1 (stereo not shown) [Compound 316] | 93.3% | > 90% | 11.8 nM | ≤ 100 nM |
| CN1CC(=O)N(c2ccc(-c3cccc(C4CCC(=O)NC4=O)c3Cl)cc2)CC1(C)C (stereo not shown) [Compound 317] | 93.2% | > 90% | 13.6 nM | ≤ 100 nM |
| COC1CCCC(=O)N1c1ccc(-c2cccc(C3CCC(=O)NC3=O)c2Cl)cc1 (stereo not shown) [Compound 318] | 97.2% | > 90% | 5.24 nM | ≤ 100 nM |
| O=C1CCC(c2cccc(-c3ccc(N4CC5CC5C4=O)cc3)c2Cl)C(=O)N1 (stereo not shown) [Compound 319] | 80.8% | 60 to 90% | 104 nM | 100 to 1000 nM |
| O=C1CCC(c2cccc(-c3ccc(N4CCOC(F)(F)C4=O)cc3)c2Cl)C(=O)N1 (stereo not shown) [Compound 320] | 84.9% | 60 to 90% | 102 nM | 100 to 1000 nM |
| O=C1CCC(c2cccc(-c3ccc(N4CCn5nccc5C4=O)cc3)c2Cl)C(=O)N1 (stereo not shown) [Compound 321] | 88.1% | 60 to 90% | 22.5 nM | ≤ 100 nM |
| O=C1CCC(c2cccc(-c3ccc(N4CCCC(F)(F)C4=O)cc3)c2Cl)C(=O)N1 (stereo not shown) [Compound 322] | 93.9% | > 90% | 17.7 nM | ≤ 100 nM |
| O=C1CCC(c2cccc(-c3ccc(N4CCCC(F)C4=O)cc3)c2Cl)C(=O)N1 (stereo not shown) [Compound 323] | 95% | > 90% | 10.6 nM | ≤ 100 nM |
| O=C1CCC(c2cccc(-c3ccc(N4C(=O)COCC45CC5)cc3)c2Cl)C(=O)N1 (stereo not shown) [Compound 324] | 97.8% | > 90% | 3.46 nM | ≤ 100 nM |
| C[C@H]1COCC(=O)N1c1ccc(-c2cccc(C3CCC(=O)NC3=O)c2Cl)cc1 (stereo partly shown) [Compound 325] | 96.2% | > 90% | 6.66 nM | ≤ 100 nM |
| CN1CC(=O)N(c2ccc(-c3cccc(C4CCC(=O)NC4=O)c3Cl)cc2)c2cncnc21 (stereo not shown) [Compound 326] | 90.9% | > 90% | 16.2 nM | ≤ 100 nM |

Reference: patent US12257247B2 (Monte Rosa Therapeutics AG, priority 2023, dated 2025)
